# Like-named read-outs stand apart in the source and are kept apart here.
# Assays:
# [1] = in vivo; conditions: both, Sprague-Dawley, rat, po
# [2] = dog, in vivo, po
# [3] = both, Sprague-Dawley, rat, in vivo, po
compound,measurement,setting,value
CC(C)CN(C[C@@H](O)[C@H](Cc1ccccc1)NC(=O)O[C@H]1CCOC1)S(=O)(=O)c1ccc(N)cc1 [VX-478],AUC,[1],29600 ± 5800 ng·h/mL
same,AUC,[2],23500 ± 7400 ng·h/mL
same,Cmax,[2],6800 ± 1100 ng/mL
same,Tmax,[2],1.0 ± 0.8 h
same,AUC,[3],16200 ± 1800 ng·h/mL

# From patent US6559137B1 (priority 1997, dated 2003)
